Where two headings read alike, the source gives them in different places. Where a SMILES comes first, the peptide text is derived from it.
What was measured:
[1] = tested on: colistin-susceptible XDR P. aeruginosa; assay: Clinical outcome (clinical cure, 30-day mortality) of patients with XDR P. aeruginosa infections treated with intravenous CMS; type: in vivo, human
Protocol: A prospective observational cohort study was conducted between January 2009 and January 2013 at a 450-bed teaching hospital in Barcelona, Spain. All patients who had microbiologically documented infections due to colistin-susceptible XDR-P.aeruginosa and were administered CMS for at least 72 h, were included in the study. Only microbiologically documented and clinically defined infections caused by colistin-susceptible XDR P. aeruginosa treated with colistin were considered. Acute bronchitis and tracheitis were excluded from the analysis due to the difficulty in differentiating true infection from colonization in patients with chronic obstructive pulmonary disease (COPD).
The primary end point was clinical cure, and the secondary 30-day all-cause mortality.
Clinical cure and failure were defined as resolution and persistence/worsening, respectively, of symptoms and signs of infection.
Thirty-day mortality was defined as death occurring within 30 days of beginning CMS treatment.
Clinical cure was defined as having resolved clinical signs and symptoms and/or no need for additional antibiotic therapy. Clinical failure was defined as an inadequate response to antibiotic therapy, with worsening, new/recurrent signs and symptoms or death.

[2] = in vivo
Protocol: The serum creatinine level and estimated glomerular filtration rate (GFR) were recorded at baseline, at the moment of colistin plasma extraction (day 4), on day 7 and at the EOT. […] The RIFLE criteria (Table 1) estimated with exclusion of the urinary output criterion, were used for the detection and stratification of acute kidney injury (AKI) [22]. AKI during CMS treatment was defined as a 1.5-fold or more increase in serum creatinine and/or a decrease in the GFR of 25% or more. These criteria needed to be fulfilled for at least 2 consecutive measurements 24 h apart during CMS treatment.

[3] = Colistin plasma concentration at steady state in patients treated with intravenous CMS (HPLC); type: in vivo, human
Protocol: CMS for injection was used and dosed in millions of IU throughout the study. The drug was administered intravenously in 100 mL of normal saline over 30 min in the commercially available colistimethate formulation for injection (GES GenéricosEspañoles®), with each vial containing 80 mg CMS (equivalent to 1 million IU of CMS and about 30 mg of colistin base activity). As the policy of our hospital, CMS is reserved for the treatment of infections due to bacteria that are resistant to carbapenems and other antipseudomonal antibiotics except colistin and, eventually, aminoglycosides. Dose selection was at the discretion of the responsible clinicians. CMS doses ranged from 1 to 3 million IU every 8 h (3–9 millions IU daily). The following dose adjustments were made according to the package insert’s recommendations in patients with impaired renal function: GFR ≥ 76 mL/min/1.73 m^2, 4–6 million IU daily in three doses; GFR 40 to 75 mL/min/1.73 m^2, 2–3 million IU daily in 2 doses; GFR 25–40 mL/min/1.73 m^2, 1.5–2 million IU daily divided into 1 or 2 doses; and GFR < 25 mL/min/1.73 m^2, 0.6–1 million IU daily every 36 h. No loading-dose was administered to any included patient.
Measurement of the plasma colistin concentration was performed at the fourth day of treatment, when was assumed that the colistin concentrations had reached the steady state. The colistin plasma trough concentrations (Cmin) were measured just before the administration of CMS. The maximum plasma concentrations (Cmax) were obtained 30 min after the end of the CMS infusion (1 h after the start of infusion). A specialized nurse performed extraction of blood. Samples were immediately placed in a portable refrigerator (4 °C) to be processed in a refrigerated centrifuge (4 °C) at the laboratory. Colistin concentrations in the plasma were determined using a validated high-performance liquid chromatography (HPLC) method as reportedby Li et al., with minor modifications as described previously by our group.
Following Couet et al., Cmin was chosen because it is more convenient from a practical view point and because due to the colistin pharmacokinetic behavior, there can be CMS hydrolysis to colistinafter sample extraction resulting in an overestimation of the real in vivo colistin plasma concentration. This phenomenon can be minimized when CMS plasma concentrations are lower what occurs at the end of the dosing interval (when the Cmin is measured). Throughout the present paper, we have used the term “average colistin concentration at steady state (Css)” to refer to the Cmin.

colistimethate sodium [CMS]
infection-related mortality rate ([1]; 13 patients died due to P. aeruginosa infection, n = 91): 14.3%
30-day all-cause mortality rate ([1]; 28 of 91 patients, i.v. CMS): 30.9%
AKI RIFLE F at the EOT, patients [2]: 11%
AKI RIFLE F on day 7 of treatment, patients [2]: 2.2%
AKI RIFLE I at the EOT, patients [2]: 29.7%
AKI RIFLE I on day 7 of treatment, patients [2]: 9.9%
AKI RIFLE R at the EOT, patients [2]: 13.2%
AKI RIFLE R on day 7 of treatment, patients [2]: 20.9%
CMS dose modified because of AKI, patients [2]: 17.5%
GFR returned to baseline at the end of follow-up, patients [2]: 35.1%
Impairment of renal function during CMS treatment at the EOT, patients [2]: 53.8%
Impairment of renal function during CMS treatment on day 7, patients [2]: 33%
Patients with AKI at day 7, F (Failure) [2]: 2 (2.2) n (%)
Patients with AKI at day 7, I (Injury) [2]: 9 (9.9) n (%)
Patients with AKI at day 7, R (Risk) [2]: 19 (20.9) n (%)
Patients with AKI at the EOT, F (Failure) [2]: 10 (11) n (%)
Patients with AKI at the EOT, I (Injury) [2]: 27 (27.7) n (%)
Patients with AKI at the EOT, R (Risk) [2]: 12 (13.2) n (%)
persisted with some grade of impairment of renal function at the end of follow-up, patients [2]: 2.1%

CC[C@H](C)CCCCC(=O)N[C@@H](CCN)C(=O)N[C@H](C(=O)N[C@@H](CCN)C(=O)N[C@H]1CCNC(=O)[C@H]([C@@H](C)O)NC(=O)[C@H](CCN)NC(=O)[C@H](CCN)NC(=O)[C@H](CC(C)C)NC(=O)[C@@H](CC(C)C)NC(=O)[C@H](CCN)NC1=O)[C@@H](C)O [colistin] (HELM PEPTIDE1{[CC[C@H](C)CCCCC(=O)[*:2]].[Dab].T.[Dab].[Dab].[Dab].[dL].L.[Dab].[Dab].T}$PEPTIDE1,PEPTIDE1,5:R3-11:R2$$$V2.0)
Css/MIC ([3]; all included patients n = 91, mean ± SD, SD): 3.43 ± 2.91
Cmax ([3]; human, iv, day 4, 30 min after end of 30-min CMS infusion, plasma, HPLC, mean ± SD, SD, read-out: Cmax (maximum plasma concentration)): 1660 ± 1400 ng/mL
level at 96 h ([3]; human, plasma, iv, day 4, just before administration of CMS, plasma, HPLC, mean ± SD, SD, read-out: Cmin (colistin plasma trough concentration)): 1710 ± 1420 ng/mL
level at 96 h ([3]; human, plasma, iv, patients who achieved clinical cure, mean (SD), abstract, SD, read-out: Css): 1490 ng/mL
level at 96 h ([3]; human, plasma, iv, patients who did not achieve clinical cure, mean (SD), p = 0.01, abstract, SD, read-out: Css): 2420 ng/mL
level at 96 h ([3]; human, plasma, iv, patients who died n = 28, day 4 trough, plasma, HPLC, mean ± SD, P = 0.011 vs survived, read-out: Css): 2100 ng/mL
level at 96 h ([3]; human, plasma, iv, patients who survived n = 63, day 4 trough, plasma, HPLC, mean ± SD, read-out: Css): 1400 ng/mL
Css/MIC ([3]; patients who died n = 28, mean ± SD, P = 0.048 vs survived, SD): 4.2 ± 2.7
Css > 1.25 (mg/L), patients ([3]; patients who survived n = 63): 28 (44.4) n (%)
Css/MIC ([3]; patients who survived n = 63, mean ± SD, SD): 3.1 ± 3
Css/MIC ([3]; patients with clinical cure n = 72, mean ± SD, SD): 3.13 ± 2.9
Css/MIC ([3]; patients with clinical failure n = 19, mean ± SD, P = 0.03 vs cure, SD): 4.61 ± 2.86

Source: paper PMC5217330, “Impact of colistin plasma levels on the clinical outcome of patients with infections caused by extremely drug-resistant Pseudomonas aeruginosa” (BMC Infectious Diseases, 2017)
